In patent publication US10570152B2, “Antibacterial therapeutics and prophylactics” (VYOME BIOSCIENCES PVT. LTD., priority 2015, dated 2020):
≈ marks a conversion by molar mass, not a printed value.

Tests used:
Assay in all cases: MIC by micro broth dilution
Format in all cases: cell-based
[1] = test system: E. faecium NCIM 5421; details: for MIC: Enterococcus faecium, NCIM5421, read-out: Minimum inhibitory concentration (MIC)
Method: (§1) MIC of DART molecules were determined by micro broth dilution as per CLSI guidelines. Bacterial strains were cultured in Brain Heart Infusion Agar (BHIA) at 37° C. for 24 h. For MIC determination, BHI broth (100 μl) was added to each of the wells of a 96 well plate. 100 μl of broth containing drug was added to the first well (1A to 1H) and thereafter serial (double) dilutions were carried out for up to 10 wells (column 1 to column 10 of the 96 well plate). Bacterial inoculum was prepared by adjusting the bacterial culture turbidity to 0.5 McFarland standard (approximately 1.5×10^8 cells/ml) and further diluted (100 times with sterile BHI broth). Diluted bacterial suspension (100 μl) was added to each well except sterility control wells (column 12 of 96 well plate). The plates were incubated at 37° C. for 24 h. The MIC of the test compound was measured after addition of Alamar blue dye.

[2] = test system: S. aureus ATCC 43300; details: S. aureus ATCC 43300; for MIC: Staphylococcus aureus, ATCC43300, read-out: Minimum inhibitory concentration (MIC)
Method: as §1

[3] = test system: S. aureus CCARM 3505; details: for MIC: Staphylococcus aureus, CCARM3505, read-out: Minimum inhibitory concentration (MIC)
Method: as §1

[4] = test system: S. aureus MTCC 6908; details: for MIC: Staphylococcus aureus, MTCC6908, read-out: Minimum inhibitory concentration (MIC)
Method: as §1

[5] = test system: S. epidermidis ATCC 35984; details: for MIC: Staphylococcus epidermidis, ATCC35984, read-out: Minimum inhibitory concentration (MIC)
Method: as §1

[6] = test system: S. epidermidis S12-1; details: for MIC: Staphylococcus epidermidis, S121, read-out: Minimum inhibitory concentration (MIC)
Method: as §1

[7] = test system: E. coli MTCC 1687; details: Escherichia coli, MTCC1687, read-out: Minimum inhibitory concentration (MIC)
Method: as §1

[8] = test system: E. coli BAA 196; details: Escherichia coli, BAA196, read-out: Minimum inhibitory concentration (MIC)
Method: as §1

SMILES	MIC [1] [µg/mL]	MIC [2] [µg/mL]	MIC [3] [µg/mL]	MIC [4] [µg/mL]	MIC [5] [µg/mL]	MIC [6] [µg/mL]	MIC [7] [µg/mL]	MIC [8] [µg/mL]	Minimum inhibitory concentration (MIC) [1] [µg/mL]	Minimum inhibitory concentration (MIC) [2] [µg/mL]	Minimum inhibitory concentration (MIC) [3] [µg/mL]	Minimum inhibitory concentration (MIC) [4] [µg/mL]	Minimum inhibitory concentration (MIC) [5] [µg/mL]	Minimum inhibitory concentration (MIC) [6] [µg/mL]
CC1Sc2c(C(=O)O)c(=O)c3cc(F)c(N4CCN(C(=O)CNC(=O)c5cccc[n+]5[O-])CC4)cc3n21 (stereo not drawn) [Compound 111, 2-((2-(4-(3-carboxy-6-fluoro-1-methyl-4-oxo-1H,4H-[1,3]thiazeto[3,2-a]quinolin-7-yl)piperazin-1-yl)-2-oxoethyl)carbamoyl)pyridine 1-oxide]	> 16	16 (≈ 30.3 µM)	> 16	> 16	> 16	> 16								
CC1Sc2c(C(=O)O)c(=O)c3cc(F)c(N4CCN(CC(=O)NC(=O)Nc5ccccc5)CC4)cc3n21 (stereo not drawn) [Compound 112, 6-Fluoro-1-methyl-4-oxo-7-(4-(2-oxo-2-(3-phenylureido)ethyl)piperazin-1-yl)-1H,4H-[1,3]thiazeto-[3,2-a]quinoline-3-carboxylic acid]	> 16	0.13 (≈ 0.247 µM)	> 16	0.25 (≈ 0.476 µM)	0.13 (≈ 0.247 µM)	8 (≈ 15.2 µM)	1 (≈ 1.9 µM)							
CC(=O)NC[C@H]1CN(c2ccc(N3CCN(C(=O)CNC(=O)c4cccc[n+]4[O-])CC3)c(F)c2)C(=O)N1 [Compound 80, (S)-2-((2-(4-(4-(4-(Acetamidomethyl)-2-oxoimidazolidin-1-yl)-2-fluorophenyl)piperazin-1-yl)-2-oxoethyl)carbamoyl)pyridine 1-oxide]	> 16	16 (≈ 31.2 µM)	> 16	16 (≈ 31.2 µM)	> 16	> 16								
CCNC(=O)N1CCN(c2cc3c(cc2F)c(=O)c(C(=O)O)c2n3C(C)S2)CC1 (stereo not drawn) [Compound 48, 7-(4-(Ethylcarbamoyl)piperazin-1-yl)-6-fluoro-1-methyl-4-oxo-1H,4H-[1,3]thiazeto[3,2-a]quinoline-3-carboxylic acid]	> 16	1 (≈ 2.38 µM)	> 16	2 (≈ 4.76 µM)	0.5 (≈ 1.19 µM)	> 16								
CC(=O)NC[C@H]1CN(c2ccc(N3CCN(C(=O)c4csc(N)n4)CC3)c(F)c2)C(=O)O1 [Compound 57, (S)—N-((3-(4-(4-(2-aminothiazole-4-carbonyl)piperazin-1-yl)-3-fluorophenyl)-2-oxooxazolidin-5-yl)methyl)acetamide]	> 16	16 (≈ 34.6 µM)	> 16	8 (≈ 17.3 µM)	> 16	> 16								
CC(=O)NC[C@H]1CN(c2ccc(N3CCN(C(=O)c4c[nH]c5ccc([N+](=O)[O-])cc45)CC3)c(F)c2)C(=O)O1 [Compound 75, (S)—N-((3-(3-fluoro-4-(4-(5-nitro-1H-indole-3-carbonyl)piperazin-1-yl)phenyl)-2-oxooxazolidin-5-yl)methyl)acetamide]	> 16	16 (≈ 30.5 µM)	> 16	4 (≈ 7.63 µM)	> 16	> 16								
CC(=O)NC[C@H]1CN(c2ccc(N3CCN(Cc4nc5ccc([N+](=O)[O-])cc5[nH]4)CC3)c(F)c2)C(=O)O1 [Compound 65, (S)—N-((3-(3-Fluoro-4-(4-((6-nitro-1H-benzo[d]imidazol-2-yl)methyl)piperazin-1-yl)phenyl)-2-oxooxazolidin-5-yl)methyl)acetamide]	> 16	> 16	> 16	16 (≈ 31.3 µM)	16 (≈ 31.3 µM)	> 16								
CC1Sc2c(C(=O)O)c(=O)c3cc(F)c(N4CCN(C(=O)c5cccc[n+]5[O-])CC4)cc3n21 (stereo not drawn) [Compound 34, 2-(4-(3-Carboxy-6-fluoro-1-methyl-4-oxo-1H,4H-[1,3]thiazeto[3,2-a]quinolin-7-yl)piperazine-1-carbonyl)pyridine-1-oxide]	1 (≈ 2.13 µM)	0.13 (≈ 0.276 µM)	8 (≈ 17 µM)	4 (≈ 8.5 µM)	0.13 (≈ 0.276 µM)	8 (≈ 17 µM)	> 16	> 16						
CCCCCCCCCCC[CH2][SnH2][CH2][C@@H](NC(C)=O)C(=O)N1CCN(c2ccc(N3CC(CNC(C)=O)OC3=O)cc2F)CC1 (stereo partly drawn) [Compound 108, (S)—N-[2-(4-{4-[5-(Acetylamino-methyl)-2-oxo-oxazolidin-3-yl]-2-fluoro-phenyl}-piperazin-1-yl)-1-dodecylstannanylmethyl-2-oxo-ethyl]-acetamide]									>16	>16	>16	>16	>16	>16
